This is an account of results in patent publication US20050009924A1 (priority 2003, published 2005).

Data set [1] concerns human hepatoma G2 cells. As to the kind of experiment: Cytotoxicity assay (XTT colorimetric), Hep G2. It is filed as cell-based. The note with it: Homo sapiens, HepG2; 48 h of drug exposure.
In data set [2] the test system is rat glioma C6 cells. Nature of the data set: Cytotoxicity assay (XTT colorimetric), C6 cells. The data set is classed as cell-based. The settings on record: Rattus norvegicus, C6; 48 h of drug exposure.
In data set [3] the test system is transcriptional activity of hTERT. Nature of the data set: SEAP reporter assay of hTERT expression, PhTERT-SEAP (hTERT-BJ1). It is filed as cell-based, human. The note with it: Homo sapiens, hTERT-BJ1, read-out: Relative SEAP activity (%). An outline of the steps: (§1)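 Cells seeded, grown 24 h at 37° C, refed, then exposed to varying drug amounts for another 24 h. Collected media heated 65° C for 10 min to kill heat-labile phosphatases, mixed with equal SEAP buffer (2 M diethanolamine, 1 mM MgCl2, 20 mM […]) plus 12 mM final p-nitrophenyl phosphate; rate of A405 increase measured.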

The test system is the same in data set [4]. Nature of the data set: SEAP reporter assay of hTERT expression, PhTERT-SEAP (H1299). The data set is classed as cell-based, human. The note with it: Homo sapiens, NCI-H1299, H1299, read-out: Relative SEAP activity (%). The gist of the method:
as §1

Data set [5] in a line: MTT relative viability, PhTERT-SEAP (H1299) cells. The settings on record: human.
A short description of data set [6]: MTT relative viability, PhTERT-SEAP (hTERT-BJ1) cells. The settings on record: human.
In data set [7] the test system is iron-induced lipid peroxidation in rat brain homogenates. Nature of the data set: Iron-induced lipid peroxidation in rat brain homogenates. The note with it: for LP (%) (10 mM): relative percentage of inhibition (Table 1).

Each structure is given as a SMILES string.

In the case of `CCSc1cccc2c1C(=O)c1cccc(SCC)c1C2=O` [IIa, 1,5-Bis(ethylthio)-anthraquinone], the melting point fell in the range of 235 to 236 °C. In data set [1], the IC50 was found to be 12.2 ± 1.1 µM. Moreover, in data set [2], the IC50 amounted to 0.02 ± 0.01 µM. Further, the activity at 3 µM in data set [3] (3.0 μM) was 109 ± 22.4%. Further, in data set [3] (30 μM), the activity at 30 µM came to 110 ± 14.3%. The activity at 300 µM in data set [3] (300 μM) was 104 ± 20.6%. For the same compound, the activity at 3 µM in data set [4] (3.0 μM) was determined as 134 ± 14.4%. The activity at 30 µM in data set [4] (30 μM) worked out at 111 ± 7.7%. Further, in data set [4] (300 μM), the activity at 300 µM was determined as 99 ± 14.3%. Also, in data set [5], the viability at 48 h, 3 µM was 111 ± 2.8%; the viability at 48 h, 30 µM amounted to 44 ± 7.3%; the viability at 48 h, 300 µM worked out at 25 ± 2.3%. In data set [6], the viability at 48 h, 3 µM was 112 ± 9.2%; the viability at 48 h, 30 µM was found to be 98 ± 12.3%; the viability at 48 h, 300 µM is 34 ± 18.1%. Also, the “LP (%) (10 mM)” value in data set [7] (10 mM) is 83 ± 2.2%.

Compound `CCCSc1cccc2c1C(=O)c1cccc(SCCC)c1C2=O` [IIc, 1,5-Bis(propylthio)-anthraquinone] gave a melting point of 232 to 233 °C. This compound also displayed an IC50 in data set [1] of 75.1 ± 2.5 µM. In data set [2], half-maximal inhibition (IC50) was put at 29.9 ± 2.1 µM. The activity at 2.8 µM in data set [3] (2.8 μM) amounted to 132 ± 21%. Also, the activity at 28 µM in data set [3] (28 μM) is 110 ± 13.2%. For the same compound, the activity at 280 µM in data set [3] (280 μM) amounted to 122 ± 14.3%. For the same compound, in data set [4] (2.8 μM), the activity at 2.8 µM was found to be 73 ± 5.4%. In addition, in data set [4] (28 μM), the activity at 28 µM came to 29 ± 2.5%. Moreover, in data set [4] (280 μM), the activity at 280 µM turned out to be 17 ± 13.9%. Moreover, in data set [5], the viability at 48 h, 2.8 µM is 96 ± 5.9%; the viability at 48 h, 28 µM was 44 ± 2.5%; the viability at 48 h, 280 µM was found to be 25 ± 2.4%. In data set [6], the viability at 48 h, 2.8 µM is 103 ± 6.3%; the viability at 48 h, 28 µM is 97 ± 3%; the viability at 48 h, 280 µM worked out at 39 ± 4.9%. Moreover, in data set [7] (10 mM), the “LP (%) (10 mM)” value turned out to be 15 ± 1.5%.

On to `O=C1c2cccc(SCCCCCCO)c2C(=O)c2cccc(SCCCCCCO)c21` [IIe, 1,5-Bis(hydroxyhexylthio)-anthraquinone], for which the melting point fell in the range of 195 to 196 °C. In data set [1], it took 49.3 ± 2.1 µM to reach half-maximal inhibition (IC50). The same compound came in with an IC50 in data set [2] of 31.7 ± 1.6 µM. Moreover, the activity at 2.1 µM in data set [3] (2.1 μM) stood at 140 ± 9.7%. For the same compound, in data set [3] (21 μM), the activity at 21 µM amounted to 128 ± 14.4%. For the same compound, the activity at 210 µM in data set [3] (210 μM) is 75 ± 17.4%. In addition, in data set [4] (2.1 μM), the activity at 2.1 µM was determined as 110 ± 6.1%. Moreover, the activity at 21 µM in data set [4] (21 μM) amounted to 100 ± 5.5%. The activity at 210 µM in data set [4] (210 μM) is 68 ± 5.9%. In data set [5], the viability at 48 h, 2.1 µM is 99 ± 6.2%; the viability at 48 h, 21 µM is 94 ± 3.9%; the viability at 48 h, 210 µM amounted to 36 ± 4.2%. In addition, in data set [6], the viability at 48 h, 2.1 µM worked out at 99 ± 6.2%; the viability at 48 h, 21 µM is 70 ± 2.2%; the viability at 48 h, 210 µM came out at 40 ± 4.7%. Also, in data set [7] (10 mM), the “LP (%) (10 mM)” value is 54 ± 1.9%.

In the case of `Nc1cccc(Sc2cccc3c2C(=O)c2cccc(Sc4cccc(N)c4)c2C3=O)c1` [IIg, 1,5-Bis(m-aminophenylthio)-Anthraquinone], the melting point was 292 to 293 °C. Half-maximal inhibition in data set [1] (IC50) was put at 21.5 ± 1.2 µM. The IC50 in data set [2] was 26.3 ± 2.8 µM. In addition, in data set [3], the activity at 2.2 µM worked out at 118 ± 9.9%, the activity at 22 µM stood at 41 ± 9.5% and the activity at 220 µM came to 8 ± 30.6%. Further, in data set [4], the activity at 2.2 µM came out at 106 ± 7.6%, the activity at 22 µM was found to be 109 ± 11.7% and the activity at 220 µM was 101 ± 7.3%. Further, in data set [5], the viability at 48 h, 2.2 µM was found to be 92 ± 3.5%; the viability at 48 h, 22 µM is 68 ± 1.9%; the viability at 48 h, 220 µM was found to be 32 ± 4.9%. In data set [6], the viability at 48 h, 2.2 µM amounted to 104 ± 5.1%; the viability at 48 h, 22 µM worked out at 9 ± 3.4%; the viability at 48 h, 220 µM turned out to be 4 ± 1.5%. The “LP (%) (10 mM)” value in data set [7] (10 mM) was determined as 6 ± 0.9%.

As for `Nc1ccc(Sc2cccc3c2C(=O)c2cccc(Sc4ccc(N)cc4)c2C3=O)cc1` [IIh, 1,5-Bis(p-aminophenylthio)-Anthraquinone], the melting point is 364 to 365 °C. This compound registered an IC50 in data set [1] of 17.4 ± 1.5 µM. Further, the IC50 in data set [2] was determined as 0.05 ± 0.01 µM. In data set [3], the activity at 2.2 µM was 97 ± 17.9%, the activity at 22 µM is 97 ± 14.5% and the activity at 220 µM worked out at 26 ± 12.6%. Also, in data set [4], the activity at 2.2 µM is 100 ± 5.7%, the activity at 22 µM came to 95 ± 2.6% and the activity at 220 µM is 84 ± 5.3%. Further, in data set [5], the viability at 48 h, 2.2 µM turned out to be 103 ± 4.3%; the viability at 48 h, 22 µM was 76 ± 4%; the viability at 48 h, 220 µM is 42 ± 2.3%. Further, in data set [6], the viability at 48 h, 2.2 µM worked out at 86 ± 11.9%; the viability at 48 h, 22 µM is 65 ± 12.6%; the viability at 48 h, 220 µM was determined as 56 ± 13.8%. Besides, the “LP (%) (10 mM)” value in data set [7] (10 mM) was 20 ± 1.4%.

With `O=C1c2cccc(SCc3ccccc3)c2C(=O)c2cccc(SCc3ccccc3)c21` [IIi, 1,5-Bis(benzylthio)-anthraquinone], the melting point was in the range of 281 to 282 °C. The compound further registered an IC50 in data set [1] of 41.5 ± 2.5 µM. In data set [2], this compound showed an IC50 of 38.2 ± 4.4 µM. For the same compound, in data set [3], the activity at 2.2 µM worked out at 117 ± 11.3%, the activity at 22 µM came to 112 ± 9.3% and the activity at 220 µM came out at 87 ± 11.1%. Further, in data set [4], the activity at 2.2 µM is 97 ± 6%, the activity at 22 µM was 100 ± 7.2% and the activity at 220 µM was determined as 100 ± 12.9%. Moreover, in data set [5], the viability at 48 h, 2.2 µM is 83 ± 5.5%; the viability at 48 h, 22 µM was determined as 44 ± 0.9%; the viability at 48 h, 220 µM was 34 ± 3.3%. Besides, in data set [6], the viability at 48 h, 2.2 µM came to 121 ± 4.7%; the viability at 48 h, 22 µM was 98 ± 4.2%; the viability at 48 h, 220 µM was determined as 47 ± 9.1%. The “Inhibition (%)” value in data set [7] (0.01 mM) amounted to 24 ± 0.8%. Further, the “Inhibition (%)” value in data set [7] (0.1 mM) turned out to be 60 ± 2.0%. The “Inhibition (%)” value in data set [7] (1 mM) was 95%. In addition, in data set [7] (10 mM), the “Inhibition (%)” value was above 100% and the “LP (%) (10 mM)” value is above 100%.

Compound `O=C1c2cccc(SCCc3ccccc3)c2C(=O)c2cccc(SCCc3ccccc3)c21` [IIk, 1,5-Bis(phenylethylthio)-anthraquinone] showed a melting point of 209 to 210 °C. This compound had an IC50 in data set [1] of 36.9 ± 1.5 µM. The compound also yielded an IC50 in data set [2] of 32.9 ± 3.3 µM. In addition, in data set [3], the activity at 2.2 µM turned out to be 119 ± 12.2%, the activity at 22 µM was 109 ± 23.4% and the activity at 220 µM is 110 ± 30.6%. Besides, in data set [4], the activity at 2.2 µM turned out to be 108 ± 0.5%, the activity at 22 µM came to 102 ± 0.5% and the activity at 220 µM stood at 97 ± 4.8%. In data set [5], the viability at 48 h, 2.2 µM was 93 ± 6.2%; the viability at 48 h, 22 µM worked out at 51 ± 9.3%; the viability at 48 h, 220 µM stood at 27 ± 2.9%. Also, in data set [6], the viability at 48 h, 2.2 µM is 91 ± 3.9%; the viability at 48 h, 22 µM stood at 54 ± 4.4%; the viability at 48 h, 220 µM is 35 ± 4.1%. The “LP (%) (10 mM)” value in data set [7] (10 mM) was 69 ± 1.5%.
